Like-named read-outs stand apart in the source and are kept apart here.
Experiments:
[1] = test system: PKB Ser473 phosphorylation in Rat1-myr-HA-p110 beta cells; assay: Reverse protein array, PKB Ser473 phosphorylation in Rat1-myr-HA-p110 beta cells; format: cell-based; settings: Rattus norvegicus, 0.5 h, 30 minutes compound incubation, read-out: p-PKB/IC50_beta
mTOR = biological target: T1, mTOR (Homo sapiens, UniProt P42345); assay: Biochemical assay for m-TOR by TR-FRET
T1 construct: purchased Invitrogen Corporation (Carlsbad/Calif., USA) PV4753
How it was run: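 mTOR (0.5 nM) phosphorylates GFP-4EBP1 (400 nM) with 8 μM ATP at rt in 50 mM HEPES pH 7.5, 10 mM MnCl2, 50 mM NaCl, 1 mM EGTA, 1 mM DTT; compounds 0.003–10 μM final. EDTA stop with Tb-anti-p4EBP1[pT46] antibody (0.5 nM); TR-FRET read after 15 min against no-enzyme and vehicle controls.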

T1 sequence (P42345 1360-2549 limits assumed): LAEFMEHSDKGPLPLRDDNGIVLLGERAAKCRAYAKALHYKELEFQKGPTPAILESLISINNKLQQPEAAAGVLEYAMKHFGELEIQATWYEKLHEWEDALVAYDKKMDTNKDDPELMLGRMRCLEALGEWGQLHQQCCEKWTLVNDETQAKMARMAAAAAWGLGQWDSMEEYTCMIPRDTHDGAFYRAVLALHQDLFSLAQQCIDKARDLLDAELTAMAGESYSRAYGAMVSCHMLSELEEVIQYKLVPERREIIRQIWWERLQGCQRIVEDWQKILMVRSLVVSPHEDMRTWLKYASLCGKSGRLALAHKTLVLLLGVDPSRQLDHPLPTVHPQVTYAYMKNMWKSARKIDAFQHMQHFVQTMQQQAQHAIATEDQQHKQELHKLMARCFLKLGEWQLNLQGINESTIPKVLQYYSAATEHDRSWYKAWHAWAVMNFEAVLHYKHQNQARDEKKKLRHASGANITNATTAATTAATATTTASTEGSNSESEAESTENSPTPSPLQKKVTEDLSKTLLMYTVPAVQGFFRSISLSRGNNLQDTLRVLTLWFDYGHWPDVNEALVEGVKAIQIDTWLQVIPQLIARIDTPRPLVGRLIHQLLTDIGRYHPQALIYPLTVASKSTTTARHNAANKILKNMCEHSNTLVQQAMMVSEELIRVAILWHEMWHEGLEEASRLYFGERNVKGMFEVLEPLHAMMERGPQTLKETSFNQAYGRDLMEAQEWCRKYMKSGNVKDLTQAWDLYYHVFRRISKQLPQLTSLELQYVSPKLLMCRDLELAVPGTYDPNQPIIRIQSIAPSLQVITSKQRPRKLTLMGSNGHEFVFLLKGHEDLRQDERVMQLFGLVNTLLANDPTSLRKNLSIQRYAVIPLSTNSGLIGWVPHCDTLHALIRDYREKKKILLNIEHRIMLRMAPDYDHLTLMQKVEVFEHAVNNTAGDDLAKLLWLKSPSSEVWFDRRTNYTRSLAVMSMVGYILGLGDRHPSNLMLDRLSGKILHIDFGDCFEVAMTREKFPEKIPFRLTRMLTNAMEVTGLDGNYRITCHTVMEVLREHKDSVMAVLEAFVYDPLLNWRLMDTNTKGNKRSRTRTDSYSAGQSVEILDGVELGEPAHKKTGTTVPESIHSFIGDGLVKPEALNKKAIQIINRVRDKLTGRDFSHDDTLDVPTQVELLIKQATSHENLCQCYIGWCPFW

Structure (SMILES) | IC50 [1] | IC50 (mTOR; read-out: EPK_mTOR/IC50) | IC50 (mTOR; read-out: mTOR/IC50)
Cc1ncccc1-n1c(=O)n(C)c2cnc3ccc(-c4cnc5[nH]ccc5c4)cc3c21 [Example 2.8, 3-Methyl-1-(2-methyl-pyridin-3-yl)-8-(1H-pyrrolo[2,3-b]pyridin-5-yl)-1,3-dihydro-imidazo[4,5-c]quinolin-2-one] | 9.49 nM |  | 
COc1cc(-c2ccc3ncc4c(c3c2)n(-c2ccc(N)nc2C)c(=O)n4C)cnc1CO [Example 30.1, 1-(6-Amino-2-methyl-pyridin-3-yl)-8-(6-hydroxymethyl-5-methoxy-pyridin-3-yl)-3-methyl-1,3-dihydro-imidazo[4,5-c]quinolin-2-one] | 237 nM | 118 nM | 
COc1cc(-c2ccc3ncc4c(c3c2)n(-c2ccc(N3CC(F)(F)C3)nc2C)c(=O)n4C)cnc1CO [Example 24.4, 1-[6-(3,3-Difluoro-azetidin-1-yl)-2-methyl-pyridin-3-yl]-8-(6-hydroxymethyl-5-methoxy-pyridin-3-yl)-3-methyl-1,3-dihydro-imidazo[4,5-c]quinolin-2-one] | 44.1 nM | 449 nM | 
CNc1ncc(-c2ccc3ncc4c(c3c2)n(-c2ccc(N3CC[C@@H](O)C3)nc2C)c(=O)n4C)cn1 [Example 34.1, 1-[6-((R)-3-Hydroxy-pyrrolidin-1-yl)-2-methyl-pyridin-3-yl]-3-methyl-8-(2-methylamino-pyrimidin-5-yl)-1,3-dihydro-imidazo[4,5-c]quinolin-2-one] | 20 nM | 28 nM | 
CNc1ncc(-c2ccc3ncc4c(c3c2)n(-c2ccc(N3CC[C@H](O)C3)nc2C)c(=O)n4C)cc1Cl [Example 32.4, 8-(5-Chloro-6-methylamino-pyridin-3-yl)-1-[6-((S)-3-hydroxy-pyrrolidin-1-yl)-2-methyl-pyridin-3-yl]-3-methyl-1,3-dihydro-imidazo[4,5-c]quinolin-2-one] | 13 nM | 7 nM | 
CCNc1cc(-c2ccc3ncc4c(c3c2)n(-c2ccc(N3CCCC3)nc2C)c(=O)n4C)cnc1CO [Example 25.5, 8-(5-Ethylamino-6-hydroxymethyl-pyridin-3-yl)-3-methyl-1-(2-methyl-6-pyrrolidin-1-yl-pyridin-3-yl)-1,3-dihydro-imidazo[4,5-c]quinolin-2-one] | < 4.57 nM | 22 nM | 
COc1ccc(-n2c(=O)n(C)c3cnc4ccc(-c5cnc(CO)c(OC)c5)cc4c32)c(OC)n1 [Example 8.14, 1-(2,6-Dimethoxy-pyridin-3-yl)-8-(6-hydroxymethyl-5-methoxy-pyridin-3-yl)-3-methyl-1,3-dihydro-imidazo[4,5-c]quinolin-2-one] | 56.7 nM | 115 nM | 
Cc1nc(N2CCC(O)C2)ccc1-n1c(=O)n(C)c2cnc3ccc(-c4cncc(C(C)(C)O)c4)cc3c21 (stereo not shown) [Example 27.5, 8-[5-(1-Hydroxy-1-methyl-ethyl)-pyridin-3-yl]-1-[6-(3-hydroxy-pyrrolidin-1-yl)-2-methyl-pyridin-3-yl]-3-methyl-1,3-dihydro-imidazo[4,5-c]quinolin-2-one] | 197 nM | 15 nM | 
Cn1c(=O)n(-c2cccnc2F)c2c3cc(-c4cnc5[nH]ccc5c4)ccc3ncc21 [Example 6.3, 1-(2-Fluoro-pyridin-3-yl)-3-methyl-8-(1H-pyrrolo[2,3-b]pyridin-5-yl)-1,3-dihydro-imidazo[4,5-c]quinolin-2-one] | 14.1 nM |  | 47 nM
Cc1nc(N2CCC(O)C2)ccc1-n1c(=O)n(C)c2cnc3ccc(-c4cnc(N)c(C(F)(F)F)c4)cc3c21 (stereo not shown) [Example 27.3, 8-(6-Amino-5-trifluoromethyl-pyridin-3-yl)-1-[6-(3-hydroxy-pyrrolidin-1-yl)-2-methyl-pyridin-3-yl]-3-methyl-1,3-dihydro-imidazo[4,5-c]quinolin-2-one] | 8.6 nM | 7 nM | 
COc1cc(-c2ccc3ncc4c(c3c2)n(-c2ccc(N3CC[C@H](O)C3)nc2C)c(=O)n4C)cnc1CO [Example 32.7, 8-(6-Hydroxymethyl-5-methoxy-pyridin-3-yl)-1-[6-((S)-3-hydroxy-pyrrolidin-1-yl)-2-methyl-pyridin-3-yl]-3-methyl-1,3-dihydro-imidazo[4,5-c]quinolin-2-one] | 200 nM | 50 nM | 
Cc1nc(F)ccc1-n1c(=O)n(C)c2cnc3ccc(-c4cncc(N5CCC5)c4)cc3c21 [Example 7.6, 8-(5-Azetidin-1-yl-pyridin-3-yl)-1-(6-fluoro-2-methyl-pyridin-3-yl)-3-methyl-1,3-dihydro-imidazo[4,5-c]quinolin-2-one] | 22.8 nM | 59 nM | 
CCNc1cc(-c2ccc3ncc4c(c3c2)n(-c2ccc(N(C)CCO)nc2C)c(=O)n4C)cnc1CO [Example 26.3, 8-(5-Ethylamino-6-hydroxymethyl-pyridin-3-yl)-1-{6-[(2-hydroxy-ethyl)-methyl-amino]-2-methyl-pyridin-3-yl}-3-methyl-1,3-dihydro-imidazo[4,5-c]quinolin-2-one] | 6.9 nM | 9 nM | 
CCNc1cc(-c2ccc3ncc4c(c3c2)n(-c2ccc(N3CC(F)(F)C(F)(F)C3)nc2C)c(=O)n4C)cnc1CO [Example 35.2, 8-(5-Ethylamino-6-hydroxymethyl-pyridin-3-yl)-3-methyl-1-[2-methyl-6-(3,3,4,4-tetrafluoro-pyrrolidin-1-yl)-pyridin-3-yl]-1,3-dihydro-imidazo[4,5-c]quinolin-2-one] | 5.27 nM | 45 nM | 
COc1cc(-c2ccc3ncc4c(c3c2)n(-c2ccc(F)nc2C)c(=O)n4C)cnc1CO [Example 7.10, 1-(6-Fluoro-2-methyl-pyridin-3-yl)-8-(6-hydroxymethyl-5-methoxy-pyridin-3-yl)-3-methyl-1,3-dihydro-imidazo[4,5-c]quinolin-2-one] | 96.6 nM | 301 nM | 
COCc1ncc(-c2ccc3ncc4c(c3c2)n(-c2ccc(F)nc2C)c(=O)n4C)cc1OC [Example 7.7, 1-(6-Fluoro-2-methyl-pyridin-3-yl)-8-(5-methoxy-6-methoxymethyl-pyridin-3-yl)-3-methyl-1,3-dihydro-imidazo[4,5-c]quinolin-2-one] | 278 nM | 447 nM | 
COc1cc(-c2ccc3ncc4c(c3c2)n(-c2ccc(N3CCC(OC)C3)nc2C)c(=O)n4C)cnc1CO (stereo not shown) [Example 28.3, 8-(6-Hydroxymethyl-5-methoxy-pyridin-3-yl)-1-[6-(3-methoxy-pyrrolidin-1-yl)-2-methyl-pyridin-3-yl]-3-methyl-1,3-dihydro-imidazo[4,5-c]quinolin-2-one] | 44.5 nM | 172 nM | 
CNc1ncc(-c2ccc3ncc4c(c3c2)n(-c2ccc(N3CCC(OC)C3)nc2C)c(=O)n4C)cn1 (stereo not shown) [Example 28.2, 1-[6-(3-Methoxy-pyrrolidin-1-yl)-2-methyl-pyridin-3-yl]-3-methyl-8-(2-methylamino-pyrimidin-5-yl)-1,3-dihydro-imidazo[4,5-c]quinolin-2-one] | 7.4 nM | 8 nM | 
COc1ccc(-n2c(=O)n(C)c3cnc4ccc(-c5cncc(N6CCC6)c5)cc4c32)c(OC)n1 [Example 8.11, 8-(5-Azetidin-1-yl-pyridin-3-yl)-1-(2,6-dimethoxy-pyridin-3-yl)-3-methyl-1,3-dihydro-imidazo[4,5-c]quinolin-2-one] | 17.1 nM | 5 nM | 
Cc1nc(N2CC(O)C2)ccc1-n1c(=O)n(C)c2cnc3ccc(-c4cncc(C(C)(C)O)c4)cc3c21 [Example 29.1, 1-[6-(3-Hydroxy-azetidin-1-yl)-2-methyl-pyridin-3-yl]-8-[5-(1-hydroxy-1-methyl-ethyl)-pyridin-3-yl]-3-methyl-1,3-dihydro-imidazo[4,5-c]quinolin-2-one] | 1100 nM | 5 nM | 
CCOc1ccc(-c2ccc3ncc4c(c3c2)n(-c2ccc(N3CCC(O)C3)nc2C)c(=O)n4C)cn1 (stereo not shown) [Example 27.4, 8-(6-Ethoxy-pyridin-3-yl)-1-[6-(3-hydroxy-pyrrolidin-1-yl)-2-methyl-pyridin-3-yl]-3-methyl-1,3-dihydro-imidazo[4,5-c]quinolin-2-one] | 20.4 nM | 23 nM | 
CNC(=O)c1ccc(-c2ccc3ncc4c(c3c2)n(-c2cccnc2C)c(=O)n4C)cc1 [Example 2.4, N-Methyl-4-[3-methyl-1-(2-methyl-pyridin-3-yl)-2-oxo-2,3-dihydro-1H-imidazo[4,5-c]quinolin-8-yl]-benzamide] | 14.8 nM |  | 12 nM
COc1ccc(-n2c(=O)n(C)c3cnc4ccc(-c5cnc(C(OC)OC)c(OC)c5)cc4c32)c(OC)n1 [Example 8.13, 8-(6-Dimethoxymethyl-5-methoxy-pyridin-3-yl)-1-(2,6-dimethoxy-pyridin-3-yl)-3-methyl-1,3-dihydro-imidazo[4,5-c]quinolin-2-one] | 212 nM | 86 nM | 
COc1cc(-c2ccc3ncc4c(c3c2)n(-c2ccc(N3CCCC3)nc2C)c(=O)n4C)cnc1CO [Example 25.4, 8-(6-Hydroxymethyl-5-methoxy-pyridin-3-yl)-3-methyl-1-(2-methyl-6-pyrrolidin-1-yl-pyridin-3-yl)-1,3-dihydro-imidazo[4,5-c]quinolin-2-one] | 17.6 nM | 655 nM | 
COCc1ncc(-c2ccc3ncc4c(c3c2)n(-c2cccnc2C)c(=O)n4C)cc1OC [Example 2.30, 8-(5-Methoxy-6-methoxymethyl-pyridin-3-yl)-3-methyl-1-(2-methyl-pyridin-3-yl)-1,3-dihydro-imidazo[4,5-c]quinolin-2-one] | 139 nM | 77 nM | 

— patent publication US20100311714A1, “1H-IMIDAZO[4,5-c]QUINOLINONE COMPOUNDS” (priority 2009, published 2010)
